Data as given in US20070072874A1, “Aminoheteroaryl compounds as protein kinase inhibitors” (Sugen, Inc., priority 2003, published 2007).
Read-outs that look alike come from different tables or passages of the source.

Experiments:
HGFR (c-MET) = biological target: T1, HGFR (c-MET) (Homo sapiens, UniProt P08581); assay: HGFR continuous-coupled spectrophotometric assay (Ki and % inhibition); type: biochemical; details: for inhibition at 0.05 µM: at 50 nM, Table 5, library products of procedure 40, crude reaction stock
T1 construct: purchased Upstate 14-526
T1 sequence (P08581 25-1390): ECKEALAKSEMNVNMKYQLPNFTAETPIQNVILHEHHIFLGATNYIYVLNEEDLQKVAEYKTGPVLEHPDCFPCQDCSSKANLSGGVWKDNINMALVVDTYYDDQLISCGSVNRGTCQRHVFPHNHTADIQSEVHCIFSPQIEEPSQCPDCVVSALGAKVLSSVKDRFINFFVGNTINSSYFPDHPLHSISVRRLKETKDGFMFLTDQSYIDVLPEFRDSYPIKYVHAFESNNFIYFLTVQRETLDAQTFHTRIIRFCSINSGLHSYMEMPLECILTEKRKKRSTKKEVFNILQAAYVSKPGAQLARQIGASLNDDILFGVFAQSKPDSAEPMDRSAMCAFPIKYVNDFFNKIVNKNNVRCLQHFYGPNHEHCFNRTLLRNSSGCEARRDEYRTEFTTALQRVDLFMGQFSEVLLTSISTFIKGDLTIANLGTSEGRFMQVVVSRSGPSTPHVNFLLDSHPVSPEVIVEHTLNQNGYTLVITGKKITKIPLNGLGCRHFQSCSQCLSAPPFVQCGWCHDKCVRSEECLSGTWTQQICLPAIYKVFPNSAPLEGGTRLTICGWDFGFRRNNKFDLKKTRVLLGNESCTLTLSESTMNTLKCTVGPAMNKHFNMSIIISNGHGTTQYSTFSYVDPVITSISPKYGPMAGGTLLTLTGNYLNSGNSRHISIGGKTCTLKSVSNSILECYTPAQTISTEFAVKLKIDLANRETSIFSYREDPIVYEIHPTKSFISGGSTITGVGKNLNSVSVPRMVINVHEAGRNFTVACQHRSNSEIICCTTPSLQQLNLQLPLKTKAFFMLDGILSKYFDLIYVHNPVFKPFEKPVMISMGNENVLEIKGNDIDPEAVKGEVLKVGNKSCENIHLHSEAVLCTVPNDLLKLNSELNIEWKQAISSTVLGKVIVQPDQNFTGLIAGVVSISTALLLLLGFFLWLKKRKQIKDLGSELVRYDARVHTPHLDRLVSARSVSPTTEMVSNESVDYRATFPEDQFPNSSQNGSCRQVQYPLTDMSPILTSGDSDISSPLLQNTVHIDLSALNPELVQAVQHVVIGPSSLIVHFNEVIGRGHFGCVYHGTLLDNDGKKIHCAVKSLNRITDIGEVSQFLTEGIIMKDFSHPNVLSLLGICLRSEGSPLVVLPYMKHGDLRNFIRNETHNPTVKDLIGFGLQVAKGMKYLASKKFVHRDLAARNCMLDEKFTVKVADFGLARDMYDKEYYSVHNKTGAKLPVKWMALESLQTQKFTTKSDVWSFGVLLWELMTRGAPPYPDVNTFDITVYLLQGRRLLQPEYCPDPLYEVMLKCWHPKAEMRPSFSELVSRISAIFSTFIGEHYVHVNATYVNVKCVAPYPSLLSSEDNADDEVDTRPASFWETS

[1] = biological target: T2, GST fusion protein containing the Met kinase domain (Homo sapiens, UniProt P08581); assay: MET transphosphorylation assay (ELISA, poly(glu-tyr) substrate); type: biochemical
T2 construct: Purified GST fusion protein containing the Met kinase domain, SUGEN, Inc
T2 sequence (P08581 1078-1345 limits assumed): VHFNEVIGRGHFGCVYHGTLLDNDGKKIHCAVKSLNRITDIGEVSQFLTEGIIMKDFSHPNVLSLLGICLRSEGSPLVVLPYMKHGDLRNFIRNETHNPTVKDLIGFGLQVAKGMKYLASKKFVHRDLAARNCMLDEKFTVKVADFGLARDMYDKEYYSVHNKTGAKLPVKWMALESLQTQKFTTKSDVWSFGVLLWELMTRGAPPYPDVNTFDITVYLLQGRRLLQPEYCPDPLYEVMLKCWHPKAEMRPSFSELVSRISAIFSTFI
Protocol: MET Transphosphorylation Assay
This assay is used to measure phosphotyrosine levels on a poly(glutamic acid:tyrosine, 4:1) substrate as a means for identifying agonists/antagonists of met transphosphorylation of the substrate.
Purified GST fusion protein containing the Met kinase domain, SUGEN, Inc.
10% aqueous (MilliQue H2O) DMSO.
2× Kinase Dilution Buffer: for 100 mL, mix 10 mL 1M HEPES at pH 7.5 with 0.4 mL 5% BSA/PBS, 0.2 mL 0.1 M sodium orthovanadate and 1 mL 5M sodium chloride in 88.4 mL dH2O.
4× ATP Reaction Mixture: for 10 mL, mix 0.4 mL 1 M manganese chloride and 0.02 mL 0.1 M ATP in 9.56 mL dH2O.
4× Negative Controls Mixture: for 10 mL, mix 0.4 mL 1 M manganese chloride in 9.6 mL dH2O.
Antibody Dilution Buffer: for 100 mL, mix 10 mL 5% BSA/PBS, 0.5 mL 5% Carnation® Instant Milk in PBS and 0.1 mL 0.1 M sodium orthovanadate in 88.4 mL TBST.
Rabbit polyclonal antophosphotyrosine antibody, SUGEN, Inc.
Goat anti-rabbit horseradish peroxidase conjugated antibody, Biosource, Inc.
ABTS Solution: for 1 L, mix 19.21 g citric acid, 35.49 g Na2HPO4 and 500 mg ABTS with sufficient dH2O to make 1 L.
ABTS/H2O2: mix 15 mL ABST solution with 2 μL H2O2 five minutes before use.
Coat ELISA plates with 2 μg Poly(Glu-Tyr) in 100 μL PBS, hold-overnight at 4° C.
Block plate with 150 μL of 5% BSA/PBS for 60 min.
Wash plate twice with PBS then once with 50 mM Hepes buffer pH 7.4.
Add 50 μl of the diluted kinase to all wells. (Purified kinase is diluted with Kinase Dilution Buffer. Final concentration should be 10 ng/well.)
Add 25 μL of the test compound (in 4% DMSO) or DMSO alone (4% in dH2O) for controls to plate.
Incubate the kinase/compound mixture for 15 minutes.
Add 25 μL of 40 mM MnCl2 to the negative control wells.
Add 25 μL ATP/MnCl2 mixture to the all other wells (except the negative controls). Incubate for 5 min.
Add 25 μL 500 mM EDTA to stop reaction.
Add 100 μL rabbit polyclonal anti-Ptyr diluted 1:10,000 in Antibody Dilution Buffer to each well. Incubate, with shaking, at room temperature for one hour.
Add 100 μL per well and incubate at room temperature, with shaking, for one hour.
Add 100 μl of ABTS/H2O2 solution to each well.
If necessary, stop the development reaction with the addition of 100 μl of 0.2M HCl per well.

[2] = at 1 μM, Table 8, library products of procedure 43, crude reaction stock, read-out: % inhibition (percent c-MET inhibition)
[3] = read-out: % (inhibition) at 1 μM (printed in the Met IC50 column), at 1 μM
[4] = Table 3, column 'Ki(μM) or I(%)': values without % sign, read-out: Ki
[5] = read-out: % inhibition (percent c-MET inhibition)

SMILES	inhibition at 1 µM (HGFR (c-MET); [3]) [%]	other results
CC1CN(C(=O)c2ccc(-c3cnc(N)c(COc4cc(F)ccc4C(F)(F)F)c3)cc2)CC(C)N1 (stereo not shown)		inhibition at 1 µM (HGFR (c-MET); [2]): 17%
CC1CN(C(=O)c2ccc(-c3cnc(N)c(OCc4nc5cc(C(F)(F)F)ccc5s4)c3)cc2)CC(C)N1 (stereo not shown)		inhibition at 1 µM (HGFR (c-MET); [2]): 27%
CN(C)[C@H]1CCN(C(=O)c2ccc(-c3cnc(N)c(OCc4ccc(F)cc4Cl)c3)cc2)C1 [Example I-205]		IC50 [1]: 8100 nM
CN(C)CCS(=O)(=O)Nc1cccc(-c2cnc(N)c(OCc3c(F)ccc(F)c3Cl)c2)c1 [Example I-259, 2-Dimethylamino-ethanesulfonic acid {3-[6-amino-5-(2-chloro-3,6-difluoro-benzyloxy)-pyridin-3-yl]-phenyl}-amide]		IC50 [1]: 1500 nM
CC(Oc1cc(-c2ccc(C(=O)N3CCC(N)CC3)cc2)cnc1N)c1c(Cl)ccc(F)c1Cl (stereo not shown) [Example I-305, (4-{6-Amino-5-[1-(2,6-dichloro-3-fluoro-phenyl)-ethoxy]-pyridin-3-yl}-phenyl)-(4-amino-pipendin-1-yl)-methanone]		IC50 [1]: 18 nM
CC(Oc1cc(-c2ccc(C(=O)N3CCC(N4CCCC4)CC3)cc2)cnc1N)c1c(F)ccc(F)c1Cl (stereo not shown) [Example I-339, (4-{6-Amino-5-[1-(2-chloro-3,6-difluoro-phenyl)-ethoxy]-pyridin-3-yl}-phenyl)-(4-pyrrolidin-1-yl-piperidin-1-yl)-methanone]		IC50 [1]: 62 nM
CC(Oc1cc(-c2ccc(C(=O)N3CCN(C)CC3)cc2)cnc1N)c1cccc(F)c1C(F)(F)F (stereo not shown) [Example I-442, (4-{6-Amino-5-[1-(3-fluoro-2-trifluoromethyl-phenyl)-ethoxy]-pyridin-3-yl}-phenyl)-(4-methyl-piperazin-1-yl)-methanone]	16	
CC(Oc1cc(-c2ccc(C(=O)N3CCC(N4CCCC4)CC3)cc2)cnc1N)c1cccc(F)c1C(F)(F)F (stereo not shown) [Example I-443, (4-{6-Amino-5-[1-(3-fluoro-2-trifluoromethyl-phenyl)-ethoxy]-pyridin-3-yl}-phenyl)-(4-pyrrolidin-1-yl-piperidin-1yl)-methanone]	13	
CC(Oc1cc(-c2ccc(C(=O)N3C[C@@H](C)N[C@@H](C)C3)cc2)cnc1N)c1cccc(F)c1C(F)(F)F (stereo partly drawn) [Example I-444, (4-{6-Amino-5-[1-(3-fluoro-2-trinuommethyl-phenyl)-ethoxy]-pyridin-3-yl}-phenyl)-((3R,5S)-3,5-dimethyl-piperazin-1-yl)-methanone]	10	
CC(Oc1cc(-c2ccc(C(=O)N3CCC[C@H]3CN3CCCC3)cc2)cnc1N)c1cccc(F)c1C(F)(F)F (stereo partly drawn) [Example I-445, (4-{6-Amino-5-[1-(3-fluoro-2-trifluoromethyl-phenyl)-ethoxy]-pyuidin-3-yl}-phenyl)-((S)-2-pyrrolidin-1-ylmethyl-pyrrolidin-1-yl)-methanone]	15	
CC(Oc1cc(-c2ccc(C(=O)N3CCC[C@@H]3CN3CCCC3)cc2)cnc1N)c1cccc(F)c1C(F)(F)F (stereo partly drawn) [Example I-446, (4-{6 Amino-5-[1-(3-fluoro-2-trifluoromethyl-phenyl)-ethoxy]pyridin-3-yl}-phenyl)-((R) 2 pyrrolidin-1-ylmethyl-pyrrolidin-1-yl)-methanone]	12	
CC(Oc1cc(-c2ccc(C(=O)NC3CCN(C)CC3)cc2)cnc1N)c1cccc(F)c1C(F)(F)F (stereo not shown) [Example I-449, 4-{6-Amino-5-[1-(3-fluoro-2-trifluoromethyl-phenyl)-ethoxy]pyridin-3-yl}-N-[1-methylpiperidin-4-yl)-benzamide]	12	
CC(Oc1cc(-c2ccc(C(=O)NCCN3CCCC3)cc2)cnc1N)c1cccc(F)c1C(F)(F)F (stereo not shown) [Example I-450, 4-{6-Amino-5-[1-(3-fluoro-2-trifluoromethyl-phenyl)-ethoxy]-pyridin-3-yl}-N-(2-pyrrolidin-1-yl-ethyl)-benzamide]	7	
CC(Oc1cc(-c2ccc(C(=O)NCCN3CCOCC3)cc2)cnc1N)c1cccc(F)c1C(F)(F)F (stereo not shown) [Example I-451, 4-{6-Amino-5-[1-(3-fluoro-2-trifluoromethyl-phenyl)-ethoxy]-pyridin-3-yl}-N-(2-morpholin-4-yl-ethyl)-benzamide]	12	
CC(Oc1cc(-c2ccc(C(=O)NCCCN3CCCC3)cc2)cnc1N)c1cccc(F)c1C(F)(F)F (stereo not shown) [Example I-452, 4-{6-Amino-5-[1-(3-fluoro-2-trifluoromethyl-phenyl)-ethoxy]-pyridin-3-yl}-N-(3-pyrrolidin-1-yl-propyl)-benzamide]	3	
CC(Oc1cc(-c2ccc(C(=O)NCCCN3CCOCC3)cc2)cnc1N)c1cccc(F)c1C(F)(F)F (stereo not shown) [Example I-453, 4-{6-Amino-5-[1-(3-fluoro-2-trifluoromethyl-phenyl)-ethoxy]-pyridin-3-yl}-N-(3-morpholin-4-yl-propyl)-benzamide]	10	
CC(Oc1cc(C#N)cnc1N)c1c(Cl)ccc(C#N)c1Cl (stereo not shown) [Example I-455, 6-Amino-5-[1-(2,6-dichloro-3-cyano-phenyl)-ethoxy]-nicotinonitrile]	8	
CC(Oc1cc(CN)cnc1N)c1c(Cl)ccc(F)c1Cl (stereo not shown) [Example I-456, 5-Aminomethyl-3-[1-(2,6-dichloro-3-fluoro-phenyl)-ethoxy]-pyridin-2-ylamine]	0	
CC(Oc1cc(CNC(=O)N2CCC[C@@H]2CN2CCCC2)cnc1N)c1c(Cl)ccc(F)c1Cl (stereo partly drawn) [Example I-457, (R)-2-Pyrrolidin-1-ylmethyl-pyrrolidine-1-carboxylic acid {6-amino-5-[1-(2,6-dichloro-3-fluoro-phenyl)-ethoxy]-pyridin-3-ylmethyl}-amide]	1	

SMILES	inhibition at 1 µM (HGFR (c-MET); [3]) [%]	other results
CC(Oc1cc(CNS(C)(=O)=O)cnc1N)c1c(Cl)ccc(F)c1Cl (stereo not shown) [Example I-458, N-{6-Amino-5-[1-(2,6-dichloro-3-fluorophenyl)-ethoxy]-pyridin-3-ylmethyl}-methanesulfonamide]	0	
CC(=O)NCc1cnc(N)c(OC(C)c2c(Cl)ccc(F)c2Cl)c1 (stereo not shown) [Example I-459, N-{6-Amino-5-[1-(2,6-dichloro-3-fluoro-phenyl)-ethoxy]-pyridin-3-ylmethyl}-acetamide]	2	
Cc1ccc(S(=O)(=O)NCc2cnc(N)c(OC(C)c3c(Cl)ccc(F)c3Cl)c2)cc1 (stereo not shown) [Example I-460, N-{6-Amino-5-[1-(2,6-dichloro-3-fluoro-phenyl)-ethoxy]-pyridin-3-ylmethyl}-4-methyl-benzenesulfonamide]	9	
CC(Oc1cc([C@H](O)CO)cnc1N)c1c(Cl)ccc(F)c1Cl (stereo partly drawn) [Example I-462, (S)-1-{6 Amino-5-[1-(2,6-dichloro-3-fluoro-phenyl)-ethoxy]-pyridin-3-yl}-ethane-1,2-diol]	2	
CC(Oc1cc([C@@H](O)CO)cnc1N)c1c(Cl)ccc(F)c1Cl (stereo partly drawn) [Example I-463, (R)-1-{6-Amino-5-[1-(2,6-dichloro-3-fluoro-phenyl)-ethoxy]-pyridin-3-yl}-ethane-1,2-diol]	2	
COc1c(F)cccc1COc1cc(Br)cnc1N [Example I-468, 5-Bromo-3-(3-fluoro-2-methoxy-benzyloxy)-pyridin-2-ylamine]	8	
COc1c(F)cccc1C(C)Oc1cc(Br)cnc1N (stereo not shown) [Example I-469, 5-Bromo-3-[1-(3-fluoro-2-methoxy-phenyl)-ethoxy]-pyridin-2-ylamine]	7	
COc1c(F)cccc1COc1cc(-c2ccc(C(=O)N3C[C@@H](C)N[C@@H](C)C3)cc2)cnc1N [Example I-470, (4-{6-Amino-5-(3-fluoro-2-methoxy-benzyloxy)-pyridin-3-yl]-phenyl}-((3R,5S)-3,5-dimethyl-piperazin-1-yl)-methanone]	3	
COc1c(F)cccc1C(C)Oc1cc(-c2ccc(C(=O)N3C[C@@H](C)N[C@@H](C)C3)cc2)cnc1N (stereo partly shown) [Example I-471]	1	
CC(Oc1cc(-c2ccc(OCC(=O)N3CCN(C(=O)OC(C)(C)C)CC3)cc2)cnc1N)c1c(Cl)ccc(F)c1Cl (stereo not shown) [Example I-479, 4-[2-(4-{8-Amino-5-[1-(2,6-dichloro-3-fluoro-phenyl)-ethoxy]-pyridin-3-yl}-phenoxy)-acetyl]-piperazine-1-carboxylic acid tert-butyl ester]		Ki (HGFR (c-MET); cells marked "Ki", read-out: Ki (printed in the Met IC50 column)): 0.016 µM
CC(Oc1cc(Br)cnc1N)c1cccc(F)c1Cl (stereo not shown) [Example I-486, Bromo-3-[1-(2-chloro-3-fluoro-phenyl)-ethoxy]-pyridin-2-ylamine]	0	
CC(Oc1cc(-c2ccc(CN3C[C@@H](C)O[C@@H](C)C3)cc2)cnc1N)c1c(Cl)ccc(F)c1Cl (stereo partly drawn) [Example I-571, 3-[1-(2,6-Dichloro-3-fluoro-phenyl)-ethoxy]-5-(4-((2R,6S)-2,6-dimethyl-morpholin-4-ylmethyl)-phenyl]-pyridin-2-ylamine]		Ki (HGFR (c-MET); [4]): 0.27 µM
CC(Oc1cc(-c2ccc(CN3CCOCC3)cc2)cnc1N)c1c(Cl)ccc(F)c1Cl (stereo not shown) [Example I-572, 3-[1-(2,6-Dichloro-3-fluoro-phenyl)-ethoxy]-(4-morpholin-4-ylmethyl-phenyl)-pyridin-2-ylamine]		Ki (HGFR (c-MET); [4]): 0.554 µM
CCN1CCN(C(=O)c2ccc(-c3cnc(N)c(OC(C)c4c(Cl)ccc(F)c4Cl)c3)cc2)CC1 (stereo not shown) [Example I-633, (4-{6-Amino-5-[1-(2,6-dichloro-3-fluoro-phenyl)-ethoxy]-pyridin-3-yl}-phenyl)-(4-ethyl-piperazin-1-yl)-methanone]		Ki (HGFR (c-MET); [4]): 0.0472 µM
Nc1ncc(-c2ccc(C(=O)N3CCC(N4CCCC4)CC3)cc2)cc1OCc1ccc(-c2ccccc2)cc1 [Example I-651]		Ki (HGFR (c-MET); [4]): 1.53 µM
CC(Oc1cc(-c2ccc(C(=O)N3CCCCC3CCO)cc2)cnc1N)c1c(Cl)ccc(F)c1Cl [Example L-47]		inhibition at 0.05 µM (HGFR (c-MET); [5]): 63%
CC(Oc1cc(-c2ccc(C(=O)N(C)CCO)cc2)cnc1N)c1c(Cl)ccc(F)c1Cl [Example L-104]		inhibition at 0.05 µM (HGFR (c-MET); [5]): 69%
CC(C)OCCNC(=O)c1ccc(-c2cnc(N)c(OC(C)c3c(Cl)ccc(F)c3Cl)c2)cc1 [Example L-140]		inhibition at 0.05 µM (HGFR (c-MET); [5]): 64%
